Square brackets hold non-standard residues; d marks the D form. Peptide text beside a SMILES is read from it. * marks the point of attachment. ξ: configuration not given here. 1Nal = N[C@@H](Cc1cccc2ccccc12)C(=O)O; ξR = N=C(N)NCCCC(N)C(=O)O; Boc = CC(C)(C)OC(=O)*; ξP = O=C(O)C1CCCN1
Legend:
[1] = Inhibitory activity against prothrombinase complex (IIase).
[2] = biological target: Thrombin and coagulation factor X (Homo sapiens) (UniProt P00734+P00742); assay: Ratio of factor Xa inhibitory activity to that of factor IIa inhibitory activity; type: protein assay
Prothrombin = Prothrombin (Homo sapiens, UniProt P00734); assay: Inhibitory activity against coagulation factor II (thrombin).
Coagulation factor X [3] = biological target: Coagulation factor X (Homo sapiens, UniProt P00742); assay: Inhibitory activity against coagulation factor X.
Coagulation factor X [4] = biological target: Coagulation factor X (Bos taurus, UniProt P00743); assay: Second-order rate of substrate hydrolysis (kcat/Km) by bovine coagulation factor X
Sequence of Coagulation factor X (Bos taurus, UniProt P00743) (P00743 41-180 limits assumed): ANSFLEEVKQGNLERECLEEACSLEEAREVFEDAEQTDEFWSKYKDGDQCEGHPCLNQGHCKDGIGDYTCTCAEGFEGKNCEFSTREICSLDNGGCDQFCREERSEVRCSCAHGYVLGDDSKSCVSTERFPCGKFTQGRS
Sequence of Coagulation factor X (Bos taurus, UniProt P00743) (P00743 234-492 limits assumed): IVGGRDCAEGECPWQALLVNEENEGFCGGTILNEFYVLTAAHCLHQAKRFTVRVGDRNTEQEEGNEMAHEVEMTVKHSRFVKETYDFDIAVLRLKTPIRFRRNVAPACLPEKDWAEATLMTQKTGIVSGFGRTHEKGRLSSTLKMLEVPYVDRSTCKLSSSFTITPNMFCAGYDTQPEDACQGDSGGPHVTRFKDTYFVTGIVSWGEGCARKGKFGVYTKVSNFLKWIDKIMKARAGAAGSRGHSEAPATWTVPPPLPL

Sequence of Thrombin and coagulation factor X (Homo sapiens) (P00742 whole entry, looked up, other chains not shown): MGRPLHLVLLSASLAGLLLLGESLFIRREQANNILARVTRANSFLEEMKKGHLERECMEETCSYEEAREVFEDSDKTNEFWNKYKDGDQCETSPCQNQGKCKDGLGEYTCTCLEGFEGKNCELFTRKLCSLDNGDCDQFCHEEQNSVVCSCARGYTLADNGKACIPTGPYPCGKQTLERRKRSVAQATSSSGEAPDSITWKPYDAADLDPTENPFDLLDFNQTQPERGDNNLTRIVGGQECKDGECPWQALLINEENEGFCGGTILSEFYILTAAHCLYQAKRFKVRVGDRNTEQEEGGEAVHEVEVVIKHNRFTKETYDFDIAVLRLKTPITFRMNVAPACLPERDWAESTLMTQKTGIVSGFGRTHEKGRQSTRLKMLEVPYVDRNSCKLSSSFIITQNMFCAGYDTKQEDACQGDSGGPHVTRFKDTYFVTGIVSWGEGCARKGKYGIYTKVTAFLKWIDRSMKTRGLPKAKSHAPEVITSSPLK
Sequence of Coagulation factor X (Homo sapiens, UniProt P00742) (P00742 41-179 limits assumed): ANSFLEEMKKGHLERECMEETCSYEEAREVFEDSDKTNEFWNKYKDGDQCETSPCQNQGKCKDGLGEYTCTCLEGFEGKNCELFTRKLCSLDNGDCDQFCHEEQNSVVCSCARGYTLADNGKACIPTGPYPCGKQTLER
Sequence of Coagulation factor X (Homo sapiens, UniProt P00742) (P00742 235-488 limits assumed): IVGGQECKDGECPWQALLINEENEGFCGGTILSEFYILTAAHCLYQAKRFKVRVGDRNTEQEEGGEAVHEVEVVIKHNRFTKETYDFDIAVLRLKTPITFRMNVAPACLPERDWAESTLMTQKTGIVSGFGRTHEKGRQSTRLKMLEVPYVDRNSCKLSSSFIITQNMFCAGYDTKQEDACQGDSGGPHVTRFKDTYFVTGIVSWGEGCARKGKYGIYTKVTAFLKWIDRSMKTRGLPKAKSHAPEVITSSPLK

IC50 [1] [nM] | Ratio [2] | IC50 (Prothrombin) [nM] | IC50 (Coagulation factor X [3]) [nM] | Compound | kcat/Km (Coagulation factor X [4]) [M⁻¹ s⁻¹]
12000 | 30 |  |  | C/N=C(\N(C)C)N(C)CCCC[C@H](NC(=O)OC(C)(C)C)C(=O)NCC(=O)NC(C=O)CCCN=C(N)N (some centres undefined) | 
 |  | > 100000 | 3000 | C/N=C(\N(C)C)N(C)CCCC[C@H](NC(=O)OC(C)(C)C)C(=O)NCC(=O)NC(C=O)CCCNC(=N)N (some centres undefined) | 
38 | 2300 |  |  | N=C(N)NCCCC(C=O)NC(=O)CNC(=O)[C@H](CCCN=C(N)N)NS(=O)(=O)CCc1ccccc1 (some centres undefined) | 
 |  | 64000 | 28 | N=C(N)NCCCC(C=O)NC(=O)CNC(=O)[C@H](CCCNC(=N)N)NS(=O)(=O)CCc1ccccc1 (some centres undefined) | 
 |  | 50000 |  | N=C(N)NCCCC(C=O)NC(=O)CNC(=O)[C@H](CCCNC(=N)N)NS(=O)(=O)Cc1ccccc1 (some centres undefined) | 
20 | 1500 | 39000 | 27 | N=C(N)NCCCC(C=O)NC(=O)CNC(=O)[C@H](CCCNC(=N)N)NS(=O)(=O)CCc1cccc2ccccc12 (some centres undefined) | 
58 | 100 |  |  | CN(CC(=O)NC(C=O)CCCN=C(N)N)C(=O)[C@H](CCCN=C(N)N)NS(=O)(=O)Cc1ccccc1 (some centres undefined) | 
 |  | 2000 | 20 | CN(CC(=O)NC(C=O)CCCNC(=N)N)C(=O)[C@H](CCCNC(=N)N)NS(=O)(=O)Cc1ccccc1 (some centres undefined) | 
 |  | > 500000 |  | CC(C)(C)OC(=O)N[C@@H](CCCNC(=N)N)C(=O)NCCC(=O)NC(C=O)CCCNC(=N)N (some centres undefined) | 
 |  | > 100000 |  | N=C(N)NCCCC(C=O)NC(=O)CNC(=O)[C@H](CCCNC(=N)N)NC(=O)COc1ccc2ccccc2c1 (some centres undefined) | 
440000 | 8 | > 500000 | 60000 | CC(C)(C)OC(=O)N[C@@H](CCCN=C(N)N)C(=O)N1CCC[C@H]1C(=O)NC(C=O)CCCN=C(N)N (stereo partly drawn) (Boc-Arg-Pro-[ξR]-aldehyde) | 
340 | 300 |  |  | CC(C)(C)OC(=O)N[C@@H](CCCN=C(N)N)C(=O)N[C@@H](Cc1cccc2ccccc12)C(=O)NC(C=O)CCCN=C(N)N (stereo partly drawn) (Boc-Arg-[1Nal]-[ξR]-aldehyde) | 
 |  | 42000 | 140 | CC(C)(C)OC(=O)N[C@@H](CCCNC(=N)N)C(=O)N[C@@H](Cc1cccc2ccccc12)C(=O)NC(C=O)CCCNC(=N)N (stereo partly drawn) (Boc-Arg-[1Nal]-[ξR]-aldehyde) | 
21 | 4 |  |  | CC(C)(C)OC(=O)N[C@@H](CCCN=C(N)N)C(=O)N1CCCC1C(=O)NC(C=O)CCCN=C(N)N (stereo partly drawn) (Boc-Arg-[ξP]-[ξR]-aldehyde) | 
 |  | 200 | 46 | CC(C)(C)OC(=O)N[C@@H](CCCNC(=N)N)C(=O)N1CCCC1C(=O)NC(C=O)CCCNC(=N)N (stereo partly drawn) (Boc-Arg-[ξP]-[ξR]-aldehyde) | 
 |  |  |  | N=C(N)NCCC[C@H](NC(=O)CNC(=O)[C@@H](CCCNC(=N)N)NC(=O)OCc1ccccc1)C(=O)Nc1ccc([N+](=O)[O-])cc1 (HELM PEPTIDE1{[O=C(OCc1ccccc1)[*:2]].[dR].G.R.[O=[N+]([O-])c1ccc(N[*:1])cc1]}$$$$V2.0) | 2.27e+06
 |  |  |  | CC[C@H](C)[C@H](NC(=O)c1ccccc1)C(=O)N[C@@H](CCC(=O)O)C(=O)NCC(=O)N[C@@H](CCCN=C(N)N)C(=O)Nc1ccc([N+](=O)[O-])cc1 (HELM PEPTIDE1{[O=C(c1ccccc1)[*:2]].I.E.G.R.[O=[N+]([O-])c1ccc(N[*:1])cc1]}$$$$V2.0) | 350000
 |  | > 500000 |  | CC(C)(C)OC(=O)NC(CCCN=C(N)N)C(=O)NC(C)(C)C(=O)N[C@H](C=O)CCCN=C(N)N (single isomer, unassigned) | 
170 | 4000 | 400000 |  | CC(C)(C)OC(=O)NC(CCCCN=C(N)N)C(=O)NCC(=O)N[C@H](C=O)CCCN=C(N)N (single isomer, unassigned) | 
10000 | 88 | 88000 | 1000 | CC(=N)NCCCC(NC(=O)OC(C)(C)C)C(=O)NCC(=O)N[C@H](C=O)CCCN=C(N)N (single isomer, unassigned) | 
 |  | > 100000 |  | CC(C)(C)OC(=O)NC(CCCNC(N)=O)C(=O)NCC(=O)N[C@H](C=O)CCCN=C(N)N (single isomer, unassigned) | 
65000 | 42 | > 500000 | 12000 | CC(C)(C)OC(=O)NC(CCCN)C(=O)NCC(=O)N[C@H](C=O)CCCN=C(N)N (single isomer, unassigned) | 
 |  | > 100000 | 100 | N=C(N)NCCCC(NC(=O)CC(=O)O)C(=O)NCC(=O)N[C@H](C=O)CCCNC(=N)N (single isomer, unassigned) | 
 |  | > 100000 |  | N=C(N)NCCCC(NC(=O)CCC(=O)O)C(=O)NCC(=O)N[C@H](C=O)CCCNC(=N)N (single isomer, unassigned) | 
2000 | 375 |  |  | N=C(N)NCCCC(NC(=O)CCc1ccccc1)C(=O)NCC(=O)N[C@H](C=O)CCCNC(=N)N (single isomer, unassigned) | 
180 | 770 | 170000 | 220 | N=C(N)NCCC[C@@H](C=O)NC(=O)CNC(=O)C(CCCN=C(N)N)NC(=O)NCc1ccccc1 (single isomer, unassigned) | 
 |  | > 100000 | 30 | CCOC(=O)NC(CCCN=C(N)N)C(=O)NCC(=O)N[C@H](C=O)CCCN=C(N)N (single isomer, unassigned) | 
828 | 290 | 55000 | 190 | NC(N)=NCCCC(N)C(=O)NCC(=O)N[C@H](C=O)CCCN=C(N)N (single isomer, unassigned) | 
 |  | > 100000 |  | CC(C)(C)OC(=O)NC(CCCCN)C(=O)NCC(=O)N[C@H](C=O)CCCN=C(N)N (single isomer, unassigned) | 
630 |  |  |  | N=C(N)NCCCC(NC(=O)C(=O)O)C(=O)NCC(=O)N[C@H](C=O)CCCNC(=N)N (single isomer, unassigned) | 

Compound | IC50 [1] [nM] | Ratio [2] | IC50 (Prothrombin) [nM] | IC50 (Coagulation factor X [3]) [nM] | kcat/Km (Coagulation factor X [4]) [M⁻¹ s⁻¹]
CC(C)(C)OC(=O)NC(CCCN=C(N)N)C(=O)NCC(=O)N[C@H](C=O)CCCN=C(N)N (single isomer, unassigned; 4) |  |  |  | 2000 | 
